Assay results from patent US11427548B2 (Arvinas Operations, Inc., priority 2015, dated 2022).
Read-outs that look alike come from different tables or passages of the source. Values belong to the molecule of their own block, whether it stands above or below them.

Target: T1, Androgen Receptor (Homo sapiens, UniProt P10275)
T1 construct: endogenous in cells; host or cells: VCaP cells
T1 sequence (P10275 1-920): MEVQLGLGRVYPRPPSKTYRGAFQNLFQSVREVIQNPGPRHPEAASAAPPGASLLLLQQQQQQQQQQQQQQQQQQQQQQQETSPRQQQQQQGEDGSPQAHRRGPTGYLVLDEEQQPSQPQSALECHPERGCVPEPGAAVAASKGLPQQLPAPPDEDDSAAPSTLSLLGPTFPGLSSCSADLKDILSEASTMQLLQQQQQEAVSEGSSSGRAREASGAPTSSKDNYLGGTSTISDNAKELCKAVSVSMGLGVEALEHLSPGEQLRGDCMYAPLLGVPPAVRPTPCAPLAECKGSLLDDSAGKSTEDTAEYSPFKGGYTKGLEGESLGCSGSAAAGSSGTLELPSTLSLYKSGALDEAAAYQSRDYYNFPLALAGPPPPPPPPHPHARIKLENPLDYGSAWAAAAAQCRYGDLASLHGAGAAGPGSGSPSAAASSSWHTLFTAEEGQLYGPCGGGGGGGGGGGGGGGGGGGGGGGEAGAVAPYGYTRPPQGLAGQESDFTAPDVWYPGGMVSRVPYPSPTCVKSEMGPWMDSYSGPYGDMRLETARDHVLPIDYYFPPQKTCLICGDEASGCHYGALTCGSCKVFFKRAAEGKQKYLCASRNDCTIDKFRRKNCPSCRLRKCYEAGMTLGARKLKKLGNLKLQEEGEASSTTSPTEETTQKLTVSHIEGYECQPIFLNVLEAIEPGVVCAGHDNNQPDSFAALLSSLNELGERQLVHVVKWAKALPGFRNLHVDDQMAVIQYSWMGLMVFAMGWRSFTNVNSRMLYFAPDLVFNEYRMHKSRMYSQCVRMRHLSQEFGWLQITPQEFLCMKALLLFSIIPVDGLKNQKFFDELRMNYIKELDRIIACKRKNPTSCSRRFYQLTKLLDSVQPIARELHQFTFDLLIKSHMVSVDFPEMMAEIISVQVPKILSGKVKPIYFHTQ
Assay: Androgen Receptor ELISA assay (PathScan AR ELISA) in VCaP cells: AR degradation, Dmax and DC50
Format: cell-based
Summary of the method: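 VCaP cells in phenol red-free RPMI with 5% charcoal-stripped FBS were grown at least 3 days, then given compound as 7 half-log doses in 0.1% DMSO with 0.1 nM R1881 for 24 h. Lysates went into a sandwich AR ELISA with TMB read at 450 nm.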

[1] = VCaP cells; Table 36; read-out: VCaP DC50
[2] = VCaP, VCaP cells; Table 36; read-out: VCaP Dmax (%)
[3] = VCaP, read-out: VCaP Dmax (%), VCaP cells; Table 36
[4] = VCaP cells; Table 35; read-out: VCaP DC50
[5] = VCaP, VCaP cells; Table 35; read-out: VCaP Dmax (%)

DC50 [1]: < 50 nM
Dmax [2]: > 71%
Compound: Cc1ncsc1-c1ccc([C@H](C)NC(=O)[C@@H]2C[C@@H](O)CN2C(=O)[C@@H](c2cc(OCCN3CCN(c4ccc(C(=O)N[C@H]5C(C)(C)[C@H](Oc6ccc(C#N)c(Cl)c6)C5(C)C)cn4)CC3)no2)C(C)C)cc1 [Example 659, N-((1r,3r)-3-(3-chloro-4-cyanophenoxy)-2,2,4,4-tetramethylcyclobutyl)-6-(4-(2-((5-((R)-1-((2S,4R)-4-hydroxy-2-(((S)-1-(4-(4-methylthiazol-5-yl)phenyl)ethyl)carbam-oyl)pyrrolidin-1-yl)-3-methyl-1-oxobutan-2-yl)isoxazol-3-yl)oxy)ethyl)piperazin-1-yl)nicotinamide]

Compound: Cc1ncsc1-c1ccc(CNC(=O)[C@@H]2C[C@@H](O)CN2C(=O)[C@@H](NC(=O)COCC2CC3(C2)CC(COc2ccc(N4C(=S)N(c5ccc(C#N)c(C(F)(F)F)c5)C(=O)C45CCC5)cc2)C3)C(C)(C)C)cc1 (stereo partly drawn) [Example 203, (2S,4R)-1-[(2S)-2-[2-({6-[(4-{7-[4-cyano-3-(trifluoromethyl)phenyl]-8-oxo-6-sulfanylidene-5,7-diazaspiro[3.4]octan-5-yl}phenoxy)methyl]spiro[3.3]heptan-2-yl}methoxy)acetamido]-3,3-dimethylbutanoyl]-4-hydroxy-N-{[4-(4-methyl-1,3-thiazol-5-yl)phenyl]methyl} pyrrolidine-2-carboxamide]
Dmax (VCaP, read-out: VCaP Dmax (%)): > 71%
DC50 (read-out: VCaP DC50; VCaP cells; concentration that caused 50% Androgen Receptor degradation): < 50 nM

DC50 [1]: < 50 nM
Dmax [3]: > 71%
Compound: Cc1ncsc1-c1ccc(CNC(=O)[C@@H]2C[C@@H](O)CN2C(=O)[C@@H](NC(=O)CN2CCC(OCCOc3ccc(C(=O)N[C@H]4C(C)(C)[C@H](Oc5ccc(C#N)c(C(F)(F)F)c5)C4(C)C)cc3)CC2)C(C)(C)C)cc1 [Example 640, (2S,4R)-1-((S)-2-(2-(4-(2-(4-(((1r,3r)-3-(4-cyano-3-(trifluorometh-yl)phenoxy)-2,2,4,4-tetramethylcyclobutyl)carbamoyl)phenoxy)eth-oxy)piperidin-1-yl)acetamido)-3,3-dimethylbutanoyl)-4-hydroxy-N-(4-(4-methylthiazol-5-yl)benzyl)pyrrolidine-2-carboxamide]

DC50 [4]: < 50 nM
Dmax [5]: 51 to 70%
Compound: CC(C)(C)[C@H](NC(=O)COCCCCCNc1ccc(C(=O)N[C@H]2C(C)(C)[C@H](Oc3ccc(C#N)c(Cl)c3)C2(C)C)cn1)C(=O)N1C[C@H](O)C[C@H]1C(=O)NCc1ccc(C#N)cc1 [Example 551]

DC50 [1]: < 50 nM
Dmax [3]: 51 to 70%
Compound: Cc1ncsc1-c1ccc([C@H](C)NC(=O)[C@@H]2C[C@@H](O)CN2C(=O)[C@@H](NC(=O)CN2CCN(CCCCN3CCN(c4ccc(C(=O)N[C@H]5C(C)(C)[C@H](Oc6ccc(C#N)c(Cl)c6)C5(C)C)cn4)CC3)CC2)C(C)(C)C)cc1 [Example 804, N-((1r,3r)-3-(3-chloro-4-cyanophenoxy)-2,2,4,4-tetramethylcyclobutyl)-6-(4-(4-(4-(2-(((S)-1-((2S,4R)-4-hydroxy-2-(((S)-1-(4-(4-methylthiazol-5-yl)phenyl)ethyl)carbamoyl)pyrrolidin-1-yl)-3,3-dimethyl-1-oxobutan-2-yl)amino)-2-oxoethyl)piperazin-1-yl)butyl)piperazin-1-yl)nicotinamide]

Compound: Cc1ncoc1-c1ccc(CNC(=O)[C@@H]2C[C@@H](O)CN2C(=O)[C@@H](NC(=O)COCCCOCCCCOc2ccc(N3C(=S)N(c4ccc(C#N)c(C(F)(F)F)c4)C(=O)C3(C)C)cc2)C(C)(C)C)cc1 [Example 35, (2S,4R)-1-[(2S)-2-(2-{3-[4-(4-{3-[4-cyano-3-(trifluoromethyl)phenyl]-5,5-dimethyl-4-oxo-2-sulfanylideneimidazolidin-1-yl}phenoxy)butoxy]propoxy}acetamido)-3,3-dimethylbutanoyl]-4-hydroxy-N-{[4-(4-methyl-1,3-oxazol-5-yl)phenyl]methyl}pyrrolidine-2-carboxamide]
Dmax (VCaP, read-out: VCaP Dmax (%)): 51 to 70%
DC50 (read-out: VCaP DC50; concentration that caused 50% Androgen Receptor degradation, VCaP cells): < 50 nM

DC50 [1]: < 50 nM
Dmax [2]: 26 to 50%
Compound: Cc1ncsc1-c1ccc(CNC(=O)[C@@H]2C[C@@H](O)CN2C(=O)[C@@H](NC(=O)CN2CCN(CCOc3ccc(C(=O)N[C@H]4C(C)(C)[C@H](Oc5ccc(C#N)c(C(F)(F)F)c5)C4(C)C)cc3)CC2)C(C)(C)C)cc1 [Example 646, (2S,4R)-1-((S)-2-(2-(4-(2-(4-(((1r,3r)-3-(4-cyano-3-(trifluoromethyl)phenoxy)-2,2,4,4-tetramethylcyclobutyl)carbamoyl)phenoxy)eth-yl)piperazin-1-yl)actamido)-3,3-dimethylbutanoyl)-4-hydroxy-N-(4-(4-methylthiazol-5-yl)benzyl)pyrrolidine-2-carboxamide]

DC50 [4]: < 50 nM
Dmax [5]: 51 to 70%
Compound: CC(C)(C)[C@H](NC(=O)COCCCCCNc1ccc(C(=O)N[C@H]2C(C)(C)[C@H](Oc3ccc(C#N)c(Cl)c3)C2(C)C)cc1)C(=O)N1C[C@H](O)C[C@H]1C(=O)NCc1ccc(Cl)cc1 [Example 552]

DC50 [1]: < 50 nM
Dmax [2]: > 71%
Compound: Cc1ncsc1-c1ccc([C@H](C)NC(=O)[C@@H]2C[C@@H](O)CN2C(=O)[C@@H](NC(=O)Cc2ccnc(N3CCN(c4ccc(C(=O)N[C@H]5C(C)(C)[C@H](Oc6ccc(C#N)c(Cl)c6)C5(C)C)cn4)CC3)c2)C(C)(C)C)cc1 [Example 644, N-((1r,3r)-3-(3-chloro-4-cyanophenoxy)-2,2,4,4-tetramethylcyclobutyl)-6-(4-(4-(2-(((S)-1-((2S,4R)-4-hydroxy-2-(((S)-1-(4-(4-methylthiazol-5-yl)phenyl)ethyl)carbam-oyl)pyrrolidin-1-yl)-3,3-dimethyl-1-oxobutan-2-yl)amino)-2-oxoethyl)pyridin-2-yl)piperazin-1-yl)nicotinamide]

DC50 [1]: < 50 nM
Dmax [2]: > 71%
Compound: Cc1ncsc1-c1ccc([C@H](C)NC(=O)[C@@H]2C[C@@H](O)CN2C(=O)[C@@H](NC(=O)COCCN2CCN(c3ccc(C(=O)N[C@H]4C(C)(C)[C@H](Oc5ccc(C#N)c(C(F)(F)F)c5)C4(C)C)cn3)CC2)C(C)(C)C)cc1 [Example 855, N-((1r,3r)-3-(4-cyano-3-(trifluoromethyl)phenoxyl)-2,2,4,4-tetramethylcyclobutyl)-6-(4-(2-(2-(((S)-1-((2S, 4R)-4-hyrdoxy-2-(((S)-1-(4-(4-methylthiazol-5-yl)phenyl)ethyl)carbamoyl)pyrrolidin-1-yl)-3,3-dimethyl-1-oxobutan-2-yl)amino)-2-oxoethoxy)ethyl)piperazin-1-yl) nicotinamide]

Compound: Cc1ncsc1-c1ccc([C@H](C)NC(=O)[C@@H]2C[C@@H](O)CN2C(=O)[C@@H](NC(=O)COCCCCOc2ccc(C(=O)N[C@H]3C(C)(C)[C@H](Oc4ccc(C#N)c(C(F)(F)F)c4)C3(C)C)cc2)C(C)(C)C)cc1 [Example 641, (2S,4R)-1-((S)-2-(2-(4-(4-(((1r,3r)-3-(4-cyano-3-(trifluorometh-yl)phenoxy)-2,2,4,4-tetramethylcyclobutyl)carbamoyl)phenoxy)butoxy)acetamido)-3,3-dimethylbutanoyl)-4-hydroxy-N-((S)-1-(4-(4-methylthiazol-5-yl)phenyl)ethyl)pyrrolidine-2-carboxamide]
DC50 [1]: < 50 nM
Dmax [3]: > 71%

Compound: Cc1ncsc1-c1ccc(CNC(=O)[C@@H]2C[C@@H](O)CN2C(=O)[C@@H](C(C)C)n2cc(OC3CCN(c4ccc(-c5ccc(N6C(=S)N(c7ccc(C#N)c(C(F)(F)F)c7)C(=O)C6(C)C)cc5)cn4)CC3)cn2)cc1 [Example 599, (2S,4R)-1-((R)-2-(4-((1-(5-(4-(3-(4-cyano-3-(trifluoromethyl)phenyl)-5,5-dimethyl-4-oxo-2-thioxoimidazolidin-1-yl)phenyl)pyridin-2-yl)piperidin-4-yl)oxy)-1H-pyrazol-1-yl)-3-methylbutanoyl)-4-hydroxy-N-(4-(4-methylthiazol-5-yl)benzyl)pyrrolidine-2-carboxamide]
Dmax (VCaP, read-out: VCaP Dmax (%)): 26 to 50%
DC50 (read-out: VCaP DC50; VCaP cells; Table 36): > 501 nM

DC50 [4]: < 50 nM
Dmax [5]: 26 to 50%
Compound: CC(C)(C)[C@H](NC(=O)COCCCCCNc1ccc(C(=O)N[C@H]2C(C)(C)[C@H](Oc3ccc(C#N)c(Cl)c3)C2(C)C)cc1)C(=O)N1C[C@H](O)C[C@H]1C(=O)NCc1ccc(-c2cccnn2)cc1 [Example 531]

DC50 [4]: < 50 nM
Dmax [5]: 26 to 50%
Compound: Cc1ncsc1-c1ccc(CNC(=O)[C@@H]2C[C@@H](O)CN2C(=O)[C@@H](NC(=O)COCCCCCNc2ccc(C(=O)N[C@H]3C(C)(C)[C@H](Oc4ccc(C#N)c(Cl)c4)C3(C)C)cc2)C(C)C)cc1 [Example 537]
